Tests used:
[1] = human gut metagenome, 24 h, 2 µM
[2] = human gut metagenome, 24 h, 2 µM; remark: listed apart in the source
[3] = human gut metagenome, 24 h, 2 µM; remark: listed apart in the source
[4] = human gut metagenome, 24 h, 2 µM; remark: listed apart in the source
[5] = (§1) The drug is tested on Z-026 corresponding to metagenome with ENA study accession number: PRJEB37062 and ENA sample accession number: ERS12561825 for biotransformation under anaerobic condition. The drug concentrations were measured over 9 timepoints collected between 0 and 24 hours of incubation by liquid-chromatography-coupled mass spectrometry (LC–MS); settings: 2 µM
[6] = human gut metagenome, 24 h, 2 µM; remark: listed apart in the source
[7] = (§2) The drug is tested on Z-025 corresponding to rabbit gut metagenome with ENA study accession number: PRJEB37062 and ENA sample accession number: ERS12561824 for biotransformation under anaerobic condition. The drug concentrations were measured over 9 timepoints collected between 0 and 24 hours of incubation by liquid-chromatography-coupled mass spectrometry (LC–MS); settings: 2 µM
[8] = as §2, with “Z-006” for “Z-025”, “mouse” for “rabbit”, “ERS12561806” for “ERS12561824”; settings: 2 µM
[9] = as §1, with “Z-021” for “Z-026”, “ERS12561820” for “ERS12561825”; settings: 2 µM
[10] = as §2, with “Z-001” for “Z-025”, “mouse” for “rabbit”, “ERS12561801” for “ERS12561824”; settings: 2 µM
[11] = human gut metagenome, 24 h, 2 µM; remark: listed apart in the source
[12] = human gut metagenome, 24 h, 2 µM; remark: listed apart in the source
[13] = as §2, with “WLS-010” for “Z-025”, “human” for “rabbit”, “ERS12561743” for “ERS12561824”; settings: 2 µM
[14] = human gut metagenome, 24 h, 2 µM; remark: listed apart in the source
[15] = as §2, with “WLS-038” for “Z-025”, “human” for “rabbit”, “ERS12561745” for “ERS12561824”; settings: 2 µM
[16] = human gut metagenome, 24 h, 2 µM; remark: listed apart in the source
[17] = human gut metagenome, 24 h, 2 µM; remark: listed apart in the source
[18] = as §2, with “WLS-006” for “Z-025”, “human” for “rabbit”, “ERS12561741” for “ERS12561824”; settings: 2 µM
[19] = as §2, with “WLS-370” for “Z-025”, “human” for “rabbit”, “ERS12561793” for “ERS12561824”; settings: 2 µM
[20] = as §2, with “WLS-027” for “Z-025”, “human” for “rabbit”, “ERS12561744” for “ERS12561824”; settings: 2 µM
Note: call rule not given here.

Row | Bacterial Biotransformation [1] | Bacterial Biotransformation [2] | Bacterial Biotransformation [3] | Bacterial Biotransformation [4] | Bacterial Biotransformation [5] | Bacterial Biotransformation [6] | Bacterial Biotransformation [7] | Bacterial Biotransformation [8] | Bacterial Biotransformation [9] | Bacterial Biotransformation [10] | Bacterial Biotransformation [11] | Bacterial Biotransformation [12] | Bacterial Biotransformation [13] | Bacterial Biotransformation [14] | Bacterial Biotransformation [15] | Bacterial Biotransformation [16] | Bacterial Biotransformation [17] | Bacterial Biotransformation [18] | Bacterial Biotransformation [19] | Bacterial Biotransformation [20] | Compound
1 | Compound metabolized | Compound metabolized | Compound NOT metabolized | Compound NOT metabolized | Compound NOT metabolized | Compound metabolized | Compound NOT metabolized | Compound NOT metabolized | Compound NOT metabolized | Compound NOT metabolized | Compound NOT metabolized | Compound NOT metabolized | Compound NOT metabolized | Compound NOT metabolized | Compound NOT metabolized | Compound NOT metabolized | Compound metabolized | Compound metabolized | Compound NOT metabolized | Compound NOT metabolized | CNC(=C[N+](=O)[O-])NCCSCc1csc(CN(C)C)n1 [NIZATIDINE]
2 | Compound metabolized | Compound metabolized | Compound metabolized | Compound metabolized | Compound NOT metabolized | Compound metabolized | Compound metabolized | Compound NOT metabolized | Compound metabolized | Compound NOT metabolized | Compound metabolized | Compound metabolized | Compound metabolized | Compound metabolized | Compound metabolized | Compound metabolized | Compound metabolized | Compound metabolized | Compound metabolized | Compound metabolized | O=C(O)CCc1nc(-c2ccccc2)c(-c2ccccc2)o1 [OXAPROZIN]
3 | Compound metabolized | Compound metabolized | Compound metabolized | Compound metabolized | Compound NOT metabolized | Compound metabolized | Compound NOT metabolized | Compound NOT metabolized | Compound metabolized | Compound metabolized | Compound NOT metabolized | Compound NOT metabolized | Compound metabolized | Compound metabolized | Compound metabolized | Compound metabolized | Compound metabolized | Compound metabolized | Compound metabolized | Compound metabolized | CC(C)(C)NC[C@H](O)COc1ccccc1C1CCCC1.CC(C)(C)NC[C@H](O)COc1ccccc1C1CCCC1.O=S(=O)(O)O [PENBUTOLOL SULFATE]
4 | Compound NOT metabolized | Compound NOT metabolized | Compound NOT metabolized | Compound NOT metabolized | Compound NOT metabolized | Compound NOT metabolized | Compound NOT metabolized | Compound NOT metabolized | Compound NOT metabolized | Compound NOT metabolized | Compound NOT metabolized | Compound NOT metabolized | Compound NOT metabolized | Compound NOT metabolized | Compound NOT metabolized | Compound NOT metabolized | Compound NOT metabolized | Compound NOT metabolized | Compound NOT metabolized | Compound NOT metabolized | CCOc1ccc(NC(C)=O)cc1 [PHENACETIN]

Source: ChEMBL document CHEMBL5724914, “Linking interpersonal differences in gut microbiota composition and drug biotransformation activity” (2024)
